Measured values: patent US5077288A, “4-fluorobenzoic compounds with 5-HT2 - and α1 -antagonistic activities” (Adir et Compagnie, priority 1989, dated 1991)
Where a name gives a salt, the structure may show the parent alone. Read-outs that look alike come from different tables or passages of the source.

Key:
[1] = test system: α1 receptor; conditions: in words; cited from earlier work
[2] = biological target: T1, 5-HT2 (Rattus norvegicus, UniProt P14842); test: 5-HT2 antagonism: inhibition of hypertensive response to 5-hydroxytryptamine; assay type: in vivo, rat (male Sprague-Dawley); conditions: iv, 10 min, i.v., cumulative doses, 5-hydroxytryptamine 100 μg/kg i.v., prazosin pretreatment, read-out: ID50, dose inhibiting the hypertensive response by 50%
T1 construct: from tissue; host or cells: whole anaesthetised male Sprague-Dawley rat in vivo (vasculature; arterial blood pressure recorded)
Experimental: Male Sprague-Dawley rats (350-400 g) are anesthetized i.p. with pentobarbital (45 mg/kg). The trachea is cannulated and the animals are subjected to artificial respiration. The vagus nerves are sectioned. A catheter is placed in a carotid artery to record the arterial blood pressure. A second catheter is placed in the vein of the penis and is used for the injections. The animals' temperature is taken and is maintained at 37° C. The rats are pretreated with d-tubocurarine (1 mg/kg i.v.) an prazosin (1 mg/kg i.v.). 5-Hydroxytryptamine is injected i.v. at a dose of 100 μg/kg twice, separated by an interval of 10 minutes, so as to determine the rise in the systolic arterial blood pressure of each rat 10 minutes later, the compounds of the invention are injected at the lowest dose and injection of 5-hydroxytryptamine is performed again 10 minutes later. 3 or 4 cumulative doses of the compounds of the invention are tested in the same manner. The percentages of the hypertensive response which are obtained at the different doses are calculated in order to determine the ID50, the dose inhibiting the hypertensive response by 50%.

[3] = test system: 5-HTP; test: 5-HTP antagonism: forepaw treading, flat body posture and head twitches induced by 5-hydroxytryptophan; assay type: in vivo, rat (female Wistar); conditions: Rattus norvegicus
Experimental: 4 Female Wistar rats (270±30 g), fasted for approximately 24 hours, are used. At the beginning of the test, they are administered the "control" solution or solutions of 5-hydroxytryptophan at a dose of 320 mg/kg. The animals are then placed under observation in transparent cages. Three parameters are assessed in the study: "forepaw treading", "flat body posture" and "head twitches". "Forepaw treading" corresponds to a pedalling motion of the forelimbs. This parameter is measured 80 minutes after the administration of 1,5-hydroxytryptophan and during a ten-minute observation period. This time is divided into 5- second periods and, if a movement is observed in this period, a score of 1 is assigned, the maximum score being […] for the ten minutes of observation and for each animal. The parameter "head twitches" relates to the number of twitches of the head of the animals observed during 10 minutes. This parameter is assessed 90 minutes after the administration of 1,5-hydroxytryptophan and during a 10- minute period. "Flat body posture" corresponds to a flattening of the body which lasts for more than 10 minutes. This parameter is assessed throughout the period of observation of the animals.

[4] = sc, read-out: ED50 HT (head twitches)
[5] = sc, subcutaneously, 5-hydroxytryptophan 320 mg/kg, Table IV, read-out: ED50 FBP (flat body posture)
[6] = sc, subcutaneously, 5-hydroxytryptophan 320 mg/kg, Table IV, read-out: ED50 FPT (forepaw treading)

T1 sequence (P14842 whole entry): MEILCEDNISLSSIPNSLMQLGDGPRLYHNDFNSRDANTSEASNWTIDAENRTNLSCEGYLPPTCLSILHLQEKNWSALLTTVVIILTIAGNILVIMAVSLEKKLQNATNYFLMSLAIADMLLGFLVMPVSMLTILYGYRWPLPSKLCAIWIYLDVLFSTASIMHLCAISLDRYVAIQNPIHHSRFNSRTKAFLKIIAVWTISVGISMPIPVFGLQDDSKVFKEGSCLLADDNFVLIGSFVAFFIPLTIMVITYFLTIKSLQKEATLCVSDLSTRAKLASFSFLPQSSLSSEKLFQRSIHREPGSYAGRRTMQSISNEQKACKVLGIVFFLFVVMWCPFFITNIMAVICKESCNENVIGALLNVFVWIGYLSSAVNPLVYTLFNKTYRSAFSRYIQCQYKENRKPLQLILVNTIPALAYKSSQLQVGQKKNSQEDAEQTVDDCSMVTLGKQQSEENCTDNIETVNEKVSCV

O=C(c1ccc(F)cc1)C1CCN(CCn2c(=O)[nH]c3ccccc3c2=O)CC1 [KETANSERIN]
α1 antagonist activity [1]: devoid of α1 antagonist activity

O=C(CC1CCN(CCn2c(=O)[nH]c3ccccc3c2=O)C1)c1ccc(F)cc1 (stereo not shown) [EXAMPLE 10, 2,4-Dioxo-3-{2-[3-(4-fluorophenacyl)-1-pyrrolidinyl]ethyl}-1,2,3,4-tetrahydrocuinazoline hydrochloride]
ED50 [2]: 0.0054 mg/kg
ED50 [3, 4]: 2.5 mg/kg
ED50 [3, 5]: 0.16 mg/kg
ED50 [3, 6]: 0.31 mg/kg

Cc1nc2c(C(N)=O)ncn2c(O)c1CCN1CCC(C(=O)c2ccc(F)cc2)CC1 [EXAMPLE 8, 8-Carbamoyl-3-{2-[4-(4-fluorobenzoyl)piperidino]-ethyl}-4-hydroxy-2-methylimidazol[1,5-a]pyrimidine hydrochloride]
ED50 [2]: 0.018 mg/kg
ED50 ([3]; read-out: ED50 HT (head twitches)): > 10 mg/kg
ED50 ([3]; Table V, route not given, 5-hydroxytryptophan 320 mg/kg, read-out: ED50 FBP (flat body posture)): 0.63 mg/kg
ED50 ([3]; Table V, route not given, 5-hydroxytryptophan 320 mg/kg, read-out: ED50 FPT (forepaw treading)): 10 mg/kg

Cl.Cl.O=C(c1ccc(F)cc1)C1CCN(CCCN2CCN(c3ncccn3)CC2)CC1 [EXAMPLE 7, 1-{3-[4-(4-Fluorobenzoyl)piperidino]propyl}-4-(2-pyrimidinyl) -piperazine dihydrochloride]
ED50 [3, 4]: > 10 mg/kg
ED50 [3, 5]: 1.25 mg/kg
ED50 [3, 6]: 1.25 mg/kg

Cl.Cl.O=C(c1ccc(F)cc1)C1CCN(CCN2CCN(c3ncccn3)CC2)CC1 [EXAMPLE 21, 4-{2-[4-(4-Fluorobenzoyl)piperidino]ethyl}-1-(2-pyrimidinyl) piperazine dihydrochloride]
ED50 [3, 4]: 1.25 mg/kg
ED50 [3, 5]: 0.63 mg/kg
ED50 [3, 6]: 2.5 mg/kg

Cl.O=C(c1ccc(F)cc1)C1CCN(CCCCN2C(=O)CN(Cc3ccccc3F)CC2=O)CC1 [EXAMPLE 4, 1-{4-[4-(4-Fluorobenzoyl)piperidino]butyl}-4-(2-fluorobenzyl) piperazine 2,6-dione hydrochloride]
ED50 [3, 5]: 10 mg/kg
ED50 [3, 6]: 5 mg/kg

Cc1cccc(CN2CC(=O)N(CCCN3CCC(C(=O)c4ccc(F)cc4)CC3)C(=O)C2)c1.Cl [EXAMPLE 15, 1-{3-[4-(4-Fluorobenzoyl)piperidino]propyl}-4-(3-methylbenzyl) piperazine 2,6-dione hydrochloride]
ED50 [3, 4]: 5 mg/kg
ED50 [3, 5]: 2.5 mg/kg
ED50 [3, 6]: 10 mg/kg

Cc1nc2c(C#N)ncn2c(O)c1CCN1CCC(C(=O)c2ccc(F)cc2)CC1 [EXAMPLE 1, 8-Cyano-3-{2-[4-(4-fluorobenzoyl)piperidino]ethyl}-4-hydroxy-2-methylimidazo[l,5-a]pyrimidine hydrochloride]
ED50 [2]: 0.0045 mg/kg
ED50 [3, 4]: > 40 mg/kg
ED50 [3, 5]: 0.04 mg/kg
ED50 [3, 6]: 40 mg/kg

Cl.O=C(c1ccc(F)cc1)C1CCN(CCCN2C(=O)CN(Cc3ccccc3F)CC2=O)CC1 [EXAMPLE 2, 1-{3-[4-(4-Fluorobenzoyl)piperidino]propyl}-4-(2-fluorobenzyl) piperazine 2,6-dione hydrochloride]
ED50 [2]: 0.014 mg/kg
ED50 [3, 4]: 5 mg/kg
ED50 [3, 5]: 0.31 mg/kg
ED50 [3, 6]: 10 mg/kg

O=C(CC1CCN(CCCN2C(=O)CN(Cc3ccccc3F)CC2=O)C1)c1ccc(F)cc1.O=C(O)C(O)C(O)C(=O)O (stereo not shown) [EXAMPLE 5, 4-(2-Fluorobenzyl)-1-{3-[3-(4-fluorophenacyl)-1-pyrrolidinyl]propyl}piperazine 2,6-dione tartrate]
ED50 [3, 4]: > 10 mg/kg
ED50 [3, 5]: 0.31 mg/kg
ED50 [3, 6]: 10 mg/kg

Cl.O=C(c1ccc(F)cc1)C1CCN(CCCN2C(=O)CN(Cc3ccccn3)CC2=O)CC1 [EXAMPLE 3, 1-{3-[4-(4-Fluorobenzoyl)piperidino]propyl}-4-(2-pyridylmethyl) piperazine 2,6-dione hydrochloride]
ED50 [3, 4]: 5 mg/kg
ED50 [3, 5]: 0.31 mg/kg
ED50 [3, 6]: 1.25 mg/kg

Cc1nc2c(C(N)=O)ncn2c(O)c1CCN1CCC(CC(=O)c2ccc(F)cc2)C1.Cl (stereo not shown) [EXAMPLE 9, 8-Carbamoyl-3-{2-[3-(4-fluorophenacyl)-1-pyrrolidinyl]ethyl}-4-hydroxy-2-methylimidazo[1,5-a]pyrimidine hydrochloride]
ED50 [2]: 0.01 mg/kg

O=C(CC1CCCN(CCCN2C(=O)CN(Cc3ccccc3F)CC2=O)C1)c1ccc(F)cc1 (stereo not shown) [EXAMPLE 6, 4-(2-Fluorobenzyl)-1-{3-[3-4-fluorophenacyl)piperidino]propyl)}piperazine 2,6-dione ditartrate]
ED50 [2]: 0.0037 mg/kg
ED50 [3, 5]: 1.25 mg/kg
ED50 [3, 6]: 2.5 mg/kg

COc1cccc(CN2CC(=O)N(CCCN3CCC(C(=O)c4ccc(F)cc4)CC3)C(=O)C2)c1.Cl [EXAMPLE 18, 1-{3-[4-(4-Fluorobenzoyl)piperidino]propyl}-4-(3-methoxybenzyl) piperazine 2,6-dione hydrochloride]
ED50 [3, 5]: 2.5 mg/kg
ED50 [3, 6]: 5 mg/kg
